Source: patent publication US7531577B2, “Arylsulfonamidyl tetralin derivatives and uses thereof” (Roche Palo Alto LLC, priority 2006, dated 2009)
Counter-ions that a name gives are not always drawn.

Tests used:
[1] = molecular target: T1, recombinant human 5-HT6 receptor (Homo sapiens, UniProt P50406); experiment: Radioligand binding, [3H]LSD competition in membranes of HEK293 cells expressing 5-HT6; details: [3H]LSD displacement, pH 7.4, 37° C., read-out: pKi for 5-HT6 (converted)
T1 construct: expressed in transfected cells; membranes
T1 sequence (P50406 whole entry): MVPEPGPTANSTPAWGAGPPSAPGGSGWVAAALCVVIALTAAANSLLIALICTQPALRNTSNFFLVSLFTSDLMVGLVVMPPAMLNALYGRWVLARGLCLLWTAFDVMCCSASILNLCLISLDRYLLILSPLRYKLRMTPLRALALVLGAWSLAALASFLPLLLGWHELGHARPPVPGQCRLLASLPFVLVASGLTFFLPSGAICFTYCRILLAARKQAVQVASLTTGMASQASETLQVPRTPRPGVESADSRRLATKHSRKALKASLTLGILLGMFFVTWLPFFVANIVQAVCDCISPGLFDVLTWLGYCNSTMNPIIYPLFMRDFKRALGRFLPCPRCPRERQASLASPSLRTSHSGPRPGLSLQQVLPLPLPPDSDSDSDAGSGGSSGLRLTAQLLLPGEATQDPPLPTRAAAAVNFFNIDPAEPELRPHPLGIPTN
Description: The binding activity of compounds of this invention in vitro was determined as follows. Duplicate determinations of 5-HT6 ligand affinity were made by competing for binding of [^3H]LSD in cell membranes derived from HEK293 cells stably expressing recombinant human 5-HT6 receptor. Duplicate determinations of 5-HT2A ligand affinity were made by competing for binding of [^3H]Ketanserin (3-(2-(4-(4-fluorobenzoyl)piperidinol)ethyl)-2,4(1H,3H)-quinazolinedione) in cell membranes derived from CHO-K1 cells stably expressing recombinant human 5-HT2A receptor. Membranes were prepared from HEK 293 cell lines by the method described by Monsma et al., Molecular Pharmacology, Vol. 43 pp. 320-327 (1993), and from CHO-K1 cell lines as described by Bonhaus et al., Br J Pharmacol. June; 115(4):622-8 (1995).
For estimation of affinity at the 5-HT6 receptor, all determinations were made in assay buffer containing 50 mM Tris-HCl, 10 mM MgSO4, 0.5 mM EDTA, 1 mM ascorbic acid, pH 7.4 at 37° C., in a 250 microliter reaction volume. […]
Assay tubes containing [^3H] […] LSD or [^3H]Ketanserin were determined as radioactive counts per minute using Packard TopCount.
Displacement of [^3H]LSD or [^3H]Ketanserin from the binding sites was quantified by fitting concentration-binding data to a 4-parameter logistic equation: […]

SMILES | melting point [°C] | Ki [1] [nM]
CC(=O)NCC1CCCc2cc(NS(=O)(=O)c3cccc(F)c3)ccc21 (stereo not shown) [Compound 8, N-[6-(3-Fluoro-benzenesulfonylamino)-1,2,3,4-tetrahydro-naphthalen-1-ylmethyl]-acetamide] | 136 to 137 | 
NC(=O)NCC1CCCc2cc(NS(=O)(=O)c3cccc(F)c3)ccc21 (stereo not shown) [Compound 6, 3-Fluoro-N-(5-ureidomethyl-5,6,7,8-tetrahydro-naphthalen-2-yl)-benzenesulfonamide] | 162 to 163 | 
CNCC1CCCc2cc(NS(=O)(=O)c3ccccc3)ccc21 (stereo not shown) [N-(5-Methylaminomethyl-5,6,7,8-tetrahydro-naphthalen-2-yl)-benzenesulfonamide] |  | ~0.138

Next, values leading:

melting point [°C] | Ki [1] [nM] | SMILES
176 to 177 |  | CN(c1ccc2c(c1)CCCC2CN)S(=O)(=O)c1cccc(F)c1 (stereo not shown) (as salt: oxalate) [Compound 9, N-(5-Aminomethyl-5,6,7,8-tetrahydro-naphthalen-2-yl)-3-fluoro-N-methyl-benzenesulfonamide]
135 to 136 |  | CNCC1CCCc2cc(NS(=O)(=O)c3cccc(F)c3)ccc21 (stereo not shown) (as salt: oxalate) [Compound 5, 3-Fluoro-N-(5-methylaminomethyl-5,6,7,8-tetrahydro-naphthalen-2-yl)-benzenesulfonamide]
164 to 165 |  | NCC1CCCc2cc(NS(=O)(=O)c3ccccc3)ccc21 (stereo not shown) [Compound 2, N-(5-Aminomethyl-5,6,7,8-tetrahydro-naphthalen-2-yl)-benzenesulfonamide]
143 to 144 |  | O=CNCC1CCCc2cc(NS(=O)(=O)c3cccc(F)c3)ccc21 (stereo not shown) [Compound 7, 3-Fluoro-N-(5-formylaminomethyl-5,6,7,8-tetrahydro-naphthalen-2-yl)-benzenesulfonamide]
